The results in this text go back to US5892026A, “High Trehalose content syrup” (Kabushiki Kaisha Hayashibara Seibutsu Kagaku Kenkyujo, priority 1995, dated 1999).

Molecules are shown by their SMILES. Converted amounts (≈) assume the structure as drawn. Where two headings read alike, the source gives them in different places.

This data set in a line: Water solubility of trehalose at ambient temperature (Experiment 1). It counts as physicochemical. Particulars: for solubility thermodynamic at 24 h: water. How it is done:
The water solubility of trehalose at ambient temperature was studied by placing into a glass beaker 10 parts by weight of water and 20 parts by weight of hydrous crystalline trehalose, incubating the mixture under stirring conditions at 10°, 15°, 20°, 25°, 30° or 40° C. for 24 hours in an incubator, filtering the resulting mixture, measuring the trehalose concentration of the filtrate, and determining the water solubility of trehalose in an anhydrous form in 100 g water at each temperature.

Take `OC[C@H]1O[C@H](O[C@H]2O[C@H](CO)[C@@H](O)[C@H](O)[C@H]2O)[C@H](O)[C@@H](O)[C@@H]1O` [Trehalose, α,α-trehalose]: the “water solubility / crystallization of trehalose (in words)” value (ambient temperature) was “dissolves in water in a relatively low concentration and readily crystallizes at ambient temperature”. Further, the solubility thermodynamic at 24 h worked out at 553 mg/mL (≈ 1620 mM) (10 °C, anhydrous form, read-out: trehalose content (g) dissolved in 100 g water); 618 mg/mL (≈ 1810 mM) (15 °C, anhydrous form, read-out: trehalose content (g) dissolved in 100 g water); 689 mg/mL (≈ 2010 mM) (20 °C, anhydrous form, read-out: trehalose content (g) dissolved in 100 g water); 773 mg/mL (≈ 2260 mM) (25 °C, anhydrous form, read-out: trehalose content (g) dissolved in 100 g water); 866 mg/mL (≈ 2530 mM) (30 °C, anhydrous form, read-out: trehalose content (g) dissolved in 100 g water); 1090 mg/mL (≈ 3190 mM) (40 °C, anhydrous form, read-out: trehalose content (g) dissolved in 100 g water). Further, the solubility thermodynamic at 24 h reads like this: (saturated in water, 10 °C, read-out: trehalose concentration (w/w %)) 356 mg/mL (≈ 1040 mM); (saturated in water, 15 °C, read-out: trehalose concentration (w/w %)) 382 mg/mL (≈ 1120 mM); (saturated in water, 20 °C, read-out: trehalose concentration (w/w %)) 408 mg/mL (≈ 1190 mM); (saturated in water, 25 °C, read-out: trehalose concentration (w/w %)) 436 mg/mL (≈ 1270 mM); (saturated in water, 30 °C, read-out: trehalose concentration (w/w %)) 464 mg/mL (≈ 1360 mM); (saturated in water, 40 °C, read-out: trehalose concentration (w/w %)) 522 mg/mL (≈ 1520 mM).
